Test results published in PubChem BioAssay AID1996.
≈ marks a conversion by molar mass, not a printed value.

Conditions: buffer; pH 7.4; 200.0 µM

Going from O=C(NCCCNC(=O)c1ccccn1)c1ccc(Cl)cc1 to O=C(CNC(=O)c1ccco1)OCc1ccccc1F, the solubility kinetic rises from 39 µg/mL (≈ 123 µM) to over 41.6 µg/mL.

CCN1C(=O)CC(c2ccc(OC(C)C)cc2)C1=O (centres undefined) and COc1ccc(C2NC(=O)CCC2[N+](=O)[O-])cc1 (centres undefined) cannot be ordered by solubility kinetic: over 39.2 µg/mL for the first, over 37.5 µg/mL for the second.

First: Cc1cc(C)cc(NC(=O)CN2C(=O)NC(Cc3c[nH]c4ccccc34)C2=O)c1 (centres undefined)
Second: COc1cccc(NC(=O)CN2C(=O)NC(C)(C3CC3)C2=O)c1 (centres undefined)
The solubility kinetic of the first is lower: 2 µg/mL (≈ 5.12 µM) for the first, over 47.6 µg/mL for the second.

Going from O=C(c1cc(-c2cccc(Cl)c2)on1)N1CCOCC1 to O=C(NCc1ccc2c(c1)OCO2)C(=S)N1CCOCC1, the solubility kinetic rises from 20.1 µg/mL (≈ 68.7 µM) to over 46.3 µg/mL.

Going from N/C(=N\O)c1ccc(Cl)cc1Cl to O=C(NCc1cccnc1)Nc1ccc(Cl)cc1Cl, the solubility kinetic rises from 30 µg/mL (≈ 146 µM) to over 44.4 µg/mL.

First: COc1ccc(-c2cn3cc([N+](=O)[O-])ccc3n2)cc1OC
Second: COc1ccc2c(c1)c(C(C)=O)c(C)n2CCc1ccc(OC)c(OC)c1
The solubility kinetic of the first is 3.1-fold lower: 16.6 µg/mL (≈ 55.5 µM) for the first, 50.8 µg/mL (≈ 138 µM) for the second.

Going from Cc1ccc(Cl)cc1NC(C#N)c1ccccc1 (centres undefined) to CC(Nc1ccccc1)c1ccncc1 (centres undefined), the solubility kinetic rises from 6.5 µg/mL (≈ 25.3 µM) to over 29.7 µg/mL.

Going from CCCN1C[C@H](CSC)C[C@@H]2c3cccc4[nH]cc(c34)C[C@H]21.CS(=O)(=O)O to CCc1cccc(C)c1NC(=O)C1CCCN(S(C)(=O)=O)C1 (centres undefined), the solubility kinetic rises from 2.3 µg/mL to over 48.7 µg/mL.

CCC(C)[C@H](NC(=O)N1CCC(C)CC1)C(=O)OC (some centres undefined) and Cc1cccc(C(=O)NCC(=O)N2CCCCCCC2)c1 cannot be ordered by solubility kinetic: over 40.6 µg/mL for the first, over 43.3 µg/mL for the second.

Going from CC(CNC(=O)c1ccc2c(c1)OCO2)c1ccc([N+](=O)[O-])cc1 (centres undefined) to O=C(NCc1ccc2c(c1)OCO2)c1ccc(Br)o1, the solubility kinetic rises from 2 µg/mL (≈ 6.09 µM) to over 48.6 µg/mL.

Compared with CC(C)NCC(=O)C12CC3CC(CC(C3)C1)C2, O=C(c1cccs1)N1CCN(C23CC4CC(CC(C4)C2)C3)CC1 is higher in solubility kinetic: 28.7 µg/mL (≈ 122 µM) for the first, over 49.6 µg/mL for the second.

Compared with Nc1cc(N2CCCC2)c(Cl)cc1[N+](=O)[O-], Cl.Nc1cc(Cl)ccc1N1CCCCCC1 is 4.1-fold higher in solubility kinetic: 3 µg/mL (≈ 12.4 µM) for the first, 12.4 µg/mL for the second.

COc1ccccc1NC(=O)c1ccccc1NC(=O)c1ccccc1C(=O)O and O=C(Nc1ccccc1N1CCN(C(=O)c2ccccc2)CC1)c1ccco1 cannot be ordered by solubility kinetic: over 58.6 µg/mL for the first, over 56.3 µg/mL for the second.

Going from O=C(O)CC1(CC(=O)NCc2cc(F)cc3c2OCOC3)CCCCC1 to O=C(COC(=O)/C=C/c1cccc(F)c1)NC1CCCCCC1, the solubility kinetic falls from over 54.8 µg/mL to 5.6 µg/mL (≈ 17.5 µM).

N#C/C(=C\c1c(N2CCCCCC2)nc2ccccn2c1=O)C(N)=O and Cc1nc(N2CCCCCC2)c2ccccc2n1.Cl cannot be ordered by solubility kinetic: over 50.6 µg/mL for the first, over 41.7 µg/mL for the second.

First: CCOC(=O)Cc1csc(NC(=O)COc2cccc(C)c2)n1
Second: COc1ccc(OC)c(NC(=O)COC(=O)Cc2ccsc2)c1
The solubility kinetic of the first is 4.3-fold lower: 8.4 µg/mL (≈ 25.1 µM) for the first, 36.2 µg/mL (≈ 108 µM) for the second.

Compared with Cc1c(C(=O)O)sc2[nH]c(=O)n(Cc3ccccc3)c(=O)c12, CCOC(=O)Cn1c(=O)n(Cc2ccc(C)cc2)c(=O)c2cccnc21 is 33-fold lower in solubility kinetic: 45.7 µg/mL (≈ 144 µM) for the first, 1.4 µg/mL (≈ 3.96 µM) for the second.

Going from COc1ccc(-c2noc(CCC(=O)NC3CCCC3)n2)cc1 to COc1ccc(CC(=O)OCC(=O)Nc2ccc3c(c2)OCO3)cc1, the solubility kinetic rises from 27.2 µg/mL (≈ 86.2 µM) to over 51.5 µg/mL.

First: O=C(Nc1cccc([N+](=O)[O-])c1)Nc1cnccn1
Second: Cc1ccc(C(=O)COC(=O)c2cnccn2)cc1C
The solubility kinetic of the first is 32-fold lower: 1.2 µg/mL (≈ 4.63 µM) for the first, 38.7 µg/mL (≈ 143 µM) for the second.

Compared with CCCc1cc(=O)[nH]c(SCC(=O)N2c3ccccc3NC(=O)C2(C)C)n1, CCCc1cc(=O)[nH]c(SCC(=O)Nc2ccc(OC)c(S(=O)(=O)N3CCCCC3)c2)n1 is 4.2-fold lower in solubility kinetic: 57.4 µg/mL (≈ 149 µM) for the first, 13.8 µg/mL (≈ 28.7 µM) for the second.

Compared with CCCCC(=O)Nc1ccc(C2C(=O)c3ccccc3C2=O)cc1, Cc1ccc(NC(=O)CCCn2c(=O)oc3ccccc32)c(O)c1 is 3.5-fold lower in solubility kinetic: 44 µg/mL (≈ 137 µM) for the first, 12.6 µg/mL (≈ 38.6 µM) for the second.

Going from CCC1(c2ccccc2)NC(=O)N(CC(=O)N(c2ccccc2)C2CCS(=O)(=O)C2)C1=O (centres undefined) to CC(C)c1ccc(C(=O)CN2C(=O)NC3(CCc4ccccc43)C2=O)cc1 (centres undefined), the solubility kinetic falls from 38 µg/mL (≈ 83.4 µM) to 7.1 µg/mL (≈ 19.6 µM) (5.4-fold).

First: CC(C)c1ccc(N=Cc2c(O)n(C3CC3)c(=S)[nH]c2=O)cc1
Second: CSc1ccc(CN(C)C(=O)c2cc(Cl)c3c(c2)OCCO3)cc1
The solubility kinetic of the first is lower: 0.5 µg/mL (≈ 1.52 µM) for the first, over 54.6 µg/mL for the second.

First: COc1ccccc1C(=O)C1CCCN(Cc2cccc3nccnc23)C1 (centres undefined)
Second: COc1ccc(-n2c(CCC(=O)O)ccc2-c2ccccc2)cc1
The solubility kinetic of the first is lower: 39.5 µg/mL (≈ 109 µM) for the first, over 48.2 µg/mL for the second.

Going from CN(Cc1ccc2ccccc2c1)C(=O)c1ccc(C(F)(F)F)cc1 to O=C(CC(=O)c1ccccc1)Nc1ccccc1C(F)(F)F, the solubility kinetic rises from 4.6 µg/mL (≈ 13.4 µM) to 43.7 µg/mL (≈ 142 µM) (9.5-fold).

First: O=[N+]([O-])C(/C=C(/Cl)[N+](=O)[O-])=C(N1CCCCC1)N1CCCCC1
Second: Cc1ccc(S(=O)(=O)N2CCN(C(C)C(=O)NCC(C)c3ccccc3)CC2)cc1 (centres undefined)
The solubility kinetic of the first is 2-fold lower: 29.1 µg/mL (≈ 84.4 µM) for the first, 58.2 µg/mL (≈ 135 µM) for the second.

First: CCOC(=O)c1ccc(NC(=O)c2ccco2)cc1
Second: O=C(COC(=O)/C=C/c1ccccc1Cl)NCc1ccco1
The solubility kinetic of the first is higher: over 38.9 µg/mL for the first, 14.4 µg/mL (≈ 45 µM) for the second.

Compared with O=c1sc(Nc2ccccc2)nc2ccccc12, O=C(Cc1cccs1)Nc1ccccc1 is higher in solubility kinetic: 6.5 µg/mL (≈ 25.6 µM) for the first, over 32.6 µg/mL for the second.

Compared with Cc1ccc(-c2nc(=O)[nH]c3ccc(Br)cc23)cc1, CCCCCc1ccc(S(=O)(=O)Nc2cc(C)ccn2)cc1 is lower in solubility kinetic: 6.7 µg/mL (≈ 21.3 µM) for the first, under 0.3 µg/mL for the second.

First: Cc1ccc(C(=O)OCC(=O)NC(C)c2ccccc2)s1 (centres undefined)
Second: Cc1ccc(S(=O)(=O)CC(=O)NC(C)c2ccccc2)cc1 (centres undefined)
The solubility kinetic of the first is 2.6-fold lower: 16.1 µg/mL (≈ 53.1 µM) for the first, 42.4 µg/mL (≈ 134 µM) for the second.

First: Cc1ccc(NS(=O)(=O)c2cccs2)c(C)c1
Second: Cc1ccc(NC(=O)CCC(=O)c2cccs2)cc1F
The solubility kinetic of the first is 9.1-fold higher: 39.1 µg/mL (≈ 146 µM) for the first, 4.3 µg/mL (≈ 14.8 µM) for the second.

Compared with CCCCC(=O)N(CCOC)c1nnc(-c2cccnc2)s1, O=C(Nc1cc(C(F)(F)F)ccc1N1CCOCC1)c1cnccn1 is lower in solubility kinetic: over 48.1 µg/mL for the first, 1.1 µg/mL (≈ 3.12 µM) for the second.

Compared with CNc1nc(NCc2ccccc2)nc(N)c1[N+](=O)[O-], Cc1ccc(CNc2nc3ccccc3n2C)o1 is higher in solubility kinetic: 2.8 µg/mL (≈ 10.2 µM) for the first, over 36.2 µg/mL for the second.

First: O=C(Nc1ccc2c(c1)CCC2)Nc1ccccc1F
Second: CN(C)C(=S)NC1CCS(=O)(=O)C1 (centres undefined)
The solubility kinetic of the first is lower: 1.6 µg/mL (≈ 5.92 µM) for the first, over 33.3 µg/mL for the second.

Work on C=CCNC(=O)CC12CC3CC(C1)CC(CC(=O)NCC=C)(C3)C2 yielded a solubility kinetic of over 49.6 µg/mL.
